Source: patent publication US20030134859A1 (SANKYO COMPANY, LIMITED, priority 2000, published 2003)
Read-outs that look alike come from different tables or passages of the source.

Tested on: leptin production
Assay: Enhancing activity for leptin production in adipocytes (ELISA)
Format: cell-based, rat
Conditions: leptin concentration as % of control group; for activity at 1 µM / activity at 0.1 µM / activity at 0.001 µM / activity at 0.01 µM: Rattus norvegicus, Adipocyte, read-out: Facilitating activity to produce leptin
Outline: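 Collagenase-dispersed epididymal adipocytes from 6-week-old male Wistar Imamichi rats, cultured in DMEM/F-12 (1:1) with test compound at final 1 µM, 100 nM, 10 nM or 1 nM (0.1% DMSO) for 24 h at 37 °C, 5% CO2. Leptin in filtrate measured by ELISA; activity = treated/DMSO-control leptin × 100 (%).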

Row | Compound | activity at 1 µM (24 h, 1 μM) | activity at 0.1 µM (24 h, 100 nm) | activity at 0.01 µM (24 h, 10 nm) | also measured
1 | CC(=O)c1ccc(NC(=O)c2cc([N+](=O)[O-])ccc2Cl)cc1 [Example 155, N-(4-Acetylphenyl)-(2-chloro-5-nitrophenyl)carboxamide] | 114% | 130% |  | 
2 | CC(=O)c1cccc(NC(=O)c2cc([N+](=O)[O-])ccc2Cl)c1 [Example 156, N-(3-Acetylphenyl)-(2-chloro-5-nitrophenyl)carboxamide] | 112% | 118% |  | 
3 | CC(C)(C)c1cc(NS(=O)(=O)c2cccc(NC(=O)c3cc([N+](=O)[O-])ccc3Cl)c2)cc(C(C)(C)C)c1O [Example 161, N-[3-[(3,5-di-tert-Butyl-4-hydroxyphenyl)aminosulfonyl]phenyl]-(2-chloro-5-nitrophenyl)carboxamide] | 131% |  |  | 
4 | O=C(Nc1ccc(-n2ccnc2)cc1)c1cc([N+](=O)[O-])ccc1Cl [Example 174, N-[4-(Imidazol-1-yl)phenyl]-(2-chloro-5-nitrophenyl)carboxamide] |  | 127% | 123% | activity at 0.001 µM (24 h, 1 nm): 118%
5 | O=C(Nc1ccc(-c2ccc(N3CCCCC3)cc2)cc1)c1cc([N+](=O)[O-])ccc1Cl [Example 177, N-[4-[4-(Piperidin-1-yl)phenyl]phenyl]-(2-chloro-5-nitrophenyl)carboxamide] | 145% | 134% | 121% | 
6 | CCCN(CCC)c1ccc(NC(=O)c2cc([N+](=O)[O-])ccc2Cl)cc1 [Example 182, N-[4-(N,N-Dipropylamino)phenyl]-(2-chloro-5-nitrophenyl)carboxamide] |  | 112% | 110% | 
7 | O=C(Nc1ccc(N2CCN(C(=O)c3ccccc3)CC2)cc1)c1cc([N+](=O)[O-])ccc1Cl [Example 184, N-[4-(4-Benzoylpiperazin-1-yl)phenyl]-(2-chloro-5-nitrophenyl)carboxamide] |  | 123% | 122% | 
8 | CCCCCCN(CC)c1ccc(NC(=O)c2cc([N+](=O)[O-])ccc2Cl)cc1 [Example 188, N-[4-(N-Ethyl-N-hexylamino)phenyl]-(2-chloro-55 nitrophenyl)carboxamide] |  |  |  | activity at 0.001 µM (24 h, 1 nm): 110%
9 | Nc1ccc(-c2ccc(NC(=O)c3cc([N+](=O)[O-])ccc3Cl)cc2)cc1 [Example 192, N-[4-(4-Aminophenyl)phenyl]-(2-chloro-5-nitrophenyl)carboxamide] |  |  | 122% | Facilitating activity to produce leptin (1 μM, 24 hr): 112.1%; Facilitating activity to produce leptin (100 nm, 24 hr): 121.7%
10 | CCCCNc1ccc(-c2ccc(NC(=O)c3cc([N+](=O)[O-])ccc3Cl)cc2)cc1 [Example 203, N-[4-[4-(N-Butylamiino)phenyl]phenyl]-(2-chloro-5-nitrophenyl)carboxamide] |  |  |  | Facilitating activity to produce leptin (1 μM, 24 hr): 133.9%; Facilitating activity to produce leptin (10 nm, 24 hr): 134.6%; Facilitating activity to produce leptin (100 nm, 24 hr): 124.8%
11 | CCCNc1ccc(-c2ccc(NC(=O)c3cc([N+](=O)[O-])ccc3Cl)cc2)cc1 [Example 204, N-[4-[4-(N-Propylamino)phenyl]phenyl]-(2-chloro-5-nitrophenyl)carboxamide] | 133% | 143% | 129% | 
12 | CCNc1ccc(-c2ccc(NC(=O)c3cc([N+](=O)[O-])ccc3Cl)cc2)cc1 [Example 205, N-[4-[4-(N-Ethylamino)phenyl]phenyl]-(2-chloro-5-nitrophenyl)carboxamide] | 120% | 123% | 123% | 
13 | CCCCCN(CCCC)c1ccc(-c2ccc(NC(=O)c3cc([N+](=O)[O-])ccc3Cl)cc2)cc1 [Example 206, N-[4-[4-(N-Butyl-N-pentylamino)phenyl]phenyl]-(2-chloro-5-nitrophenyl)carboxamide] | 119% | 112% |  | 
14 | CCCCN(CCCC)c1ccc(-c2ccc(NC(=O)c3cc([N+](=O)[O-])ccc3Cl)cc2)cc1 [Example 207, N-[4-[4-(N,N-Dibutylamino)phenyl]phenyl]-(2-chloro-5-nitrophenyl)carboxamide] | 116% | 110% | 107% | 
15 | CCCCN(CCC)c1ccc(-c2ccc(NC(=O)c3cc([N+](=O)[O-])ccc3Cl)cc2)cc1 [Example 208, N-[4-[4-(N-Butyl-N-propylamino)phenyl]phenyl]-(2-chloro-5-nitrophenyl)carboxamide] |  | 111% |  | 
16 | CCCCN(CC)c1ccc(-c2ccc(NC(=O)c3cc([N+](=O)[O-])ccc3Cl)cc2)cc1 [Example 209, N-[4-[4-(N-Butyl-N-ethylamino)phenyl]phenyl]-(2-chloro-5-nitrophenyl)carboxamide] | 117% | 111% |  | 

Row | Compound | activity at 1 µM (24 h, 1 μM) | activity at 0.1 µM (24 h, 100 nm) | activity at 0.01 µM (24 h, 10 nm) | also measured
17 | CCCN(CC)c1ccc(-c2ccc(NC(=O)c3cc([N+](=O)[O-])ccc3Cl)cc2)cc1 [Example 212, N-[4-[4-(N-Ethyl-N-propylamino)phenyl]phenyl]-(2-chloro-5-nitrophenyl)carboxamide] | 112% |  |  | 
18 | CCCCCN(CCCCC)c1ccc(-c2ccc(NC(=O)c3cc([N+](=O)[O-])ccc3Cl)cc2)cc1 [Example 214, N-[4-[4-(N,N-Dipentylamino)phenyl]phenyl]-(2-chloro-5-nitrophenyl)carboxamide] | 125% | 125% | 112% | 
19 | CCCCCN(CC)c1ccc(-c2ccc(NC(=O)c3cc([N+](=O)[O-])ccc3Cl)cc2)cc1 [Example 216, N-[4-[4-(N-Ethyl-N-pentylamino)phenyl]phenyl]-(2-chloro-5-nitrophenyl)carboxamide] | 117% | 112% | 113% | 
20 | CCN(CC)c1ccc(-c2ccc(NC(=O)c3cc([N+](=O)[O-])ccc3Cl)cc2)cc1 [Example 217, N-[4-[4-(N,N-Diethylamino)phenyl]phenyl]-(2-chloro-5-nitrophenyl)carboxamide] | 121% | 117% | 116% | 
21 | O=C(Nc1ccc(-c2ccc(NC(=S)Nc3cccc(F)c3)cc2)cc1)c1cc([N+](=O)[O-])ccc1Cl [Example 245, N-[4-[4-[(3-Fluorophenyl)aminothiocarbonylamino]phenyl]phenyl]-(2-chloro-5-nitrophenyl)carboxamide] | 111% |  | 111% | 
22 | O=C(Nc1nc(-c2ccc([N+](=O)[O-])cc2)cs1)c1cc([N+](=O)[O-])ccc1Cl [Example 246, N-[4-(4-Nitrophenyl)thiazol-2-yl]-(2-chloro-5-nitrophenyl)carboxamide] |  |  |  | activity at 0.01 µM (10 nm, 24 hr): 111%; activity at 0.1 µM (100 nm, 24 hr): 113%
23 | CCOC(=O)NC(=S)Nc1ccc(-c2ccc(NC(=O)c3cc([N+](=O)[O-])ccc3Cl)cc2)cc1 [Example 251, N-[4-[4-(Ethoxycarbonylaminothiocarbonylamino)phenyl]phenyl]-(2-chloro-5-nitrophenyl)carboxamide] |  | 107% | 111% | 
24 | O=C(Nc1ccc(-c2ccc(NC(=S)Nc3ccccc3)cc2)cc1)c1cc([N+](=O)[O-])ccc1Cl [Example 252, N-[4-[4-(Phenylaminothiocarbonylamino)phenyl]phenyl]-(2-chloro-5-nitrophenyl)carboxamide] | 108% | 113% | 110% | 
25 | O=C(Nc1ccc(-c2ccc(NC(=O)c3cc([N+](=O)[O-])ccc3Cl)cc2)cc1)Nc1ccccc1[N+](=O)[O-] [Example 254, N-[4-[4-(2-Nitrophenylaminocarbonylamino)phenyl]phenyl]-(2-chloro-5-nitrophenyl)carboxamide] |  |  |  | activity at 1 µM (1 μM, 24 hr): 109%; activity at 0.01 µM (10 nm, 24 hr): 111%; activity at 0.1 µM (100 nm, 24 hr): 106%
26 | O=C(NC(=S)NCCc1ccc(NC(=O)c2cc([N+](=O)[O-])ccc2Cl)cc1)c1ccccc1 [Example 271, N-[4-(2-Phenylcarbonylaminothiocarbonylaminoethyl)phenyl]-(2-chloro-5-nitrophenyl)carboxamide] |  | 115% | 121% | 
27 | CCS(=O)(=O)N(c1ccc(-c2ccc(NC(=O)c3cc([N+](=O)[O-])ccc3Cl)cc2)cc1)S(=O)(=O)CC [Example 276, N-[4-[4-(N,N-Diethanesulfonylamino)phenyl]phenyl]-(2-chloro-5-nitrophenyl)carboxamide] | 117% | 123% | 112% | activity at 0.001 µM (24 h, 1 nm): 108%
28 | N-[3-(Pyrrolidinylsulfonyl)phenyl]-(2-chloro-5-nitrophenyl)carboxamide [Example 154] |  |  |  | Facilitating activity to produce leptin (1 μM, 24 hr): 116.9%; Facilitating activity to produce leptin (100 nm, 24 hr): 109.5%
29 | N-[4-(4-Methylbenzoylamino)phenyl]phenyl]-(2-chloro-5-nitrophenyl)carboxamide [Example 122] |  |  |  | Facilitating activity to produce leptin (1 μM, 24 hr): 128.5%; Facilitating activity to produce leptin (100 nm, 24 hr): 128.5%
30 | N-[4-(Benzenesulfonylaminophenyl)phenyl]-(2-chloro-5-nitrophenyl)carboxamide [Example 128] |  |  |  | Facilitating activity to produce leptin (1 μM, 24 hr): 137.3%; Facilitating activity to produce leptin (10 nm, 24 hr): 108.8%; Facilitating activity to produce leptin (100 nm, 24 hr): 130.8%
31 | N-[4-[4-(Pyrrolidin-1-ylamino)phenyl]phenyl]-(2-chloro-5-nitrophenyl)carboxamide [Example 171] |  |  |  | Facilitating activity to produce leptin (1 μM, 24 hr): 126.7%; Facilitating activity to produce leptin (1 nm, 24 hr): 113.2%; Facilitating activity to produce leptin (10 nm, 24 hr): 115.4%; Facilitating activity to produce leptin (100 nm, 24 hr): 128.1%
